This test has as its target PolQ ATPase enzyme (1-894) (Homo sapiens (Human), UniProt O75417). The test is described as follows: Polθ ATPase enzymatic assay (0.5 nM enzyme concentration), ADP-Glo. In kind it is biochemical. The note with it: average IC50; 0.5 nM PolQ ATPase enzyme (1-894). The protocol: PolQ ATPase enzyme (1-894) at 0.5 nM is incubated with a 10-point concentration response of inhibitors for 15 min at rt in the following buffer: 50 mM Tris Cl pH 7.5, 10% glycerol, 5 mM DTT, 10 mM MgCl2, 0.1 mg/ml BSA. Following pre-incubation with inhibitors, DNA (Fork C) at 20 nM and ATP at 100 μM are added to start the reaction. Enzymatic reaction proceeds at rt for 180 min ATP consumption is measured using the ADP-Glo assay from Promega. Luminescence is read on the Envision and IC50 are determined using the variable slope 4-parameters equation.
Oligos are annealed by heating at 9500 for 5 min in the following buffer (10 mM Tris-HCl pH7.5, 50 mM NaCl, 1 mM EDTA) and cooled to rt. […]

Each structure is given as a SMILES string.

As usually defined, the IC50 is the concentration that inhibits the measured activity by half.

Chain of PolQ ATPase enzyme (1-894) (O75417 1-894): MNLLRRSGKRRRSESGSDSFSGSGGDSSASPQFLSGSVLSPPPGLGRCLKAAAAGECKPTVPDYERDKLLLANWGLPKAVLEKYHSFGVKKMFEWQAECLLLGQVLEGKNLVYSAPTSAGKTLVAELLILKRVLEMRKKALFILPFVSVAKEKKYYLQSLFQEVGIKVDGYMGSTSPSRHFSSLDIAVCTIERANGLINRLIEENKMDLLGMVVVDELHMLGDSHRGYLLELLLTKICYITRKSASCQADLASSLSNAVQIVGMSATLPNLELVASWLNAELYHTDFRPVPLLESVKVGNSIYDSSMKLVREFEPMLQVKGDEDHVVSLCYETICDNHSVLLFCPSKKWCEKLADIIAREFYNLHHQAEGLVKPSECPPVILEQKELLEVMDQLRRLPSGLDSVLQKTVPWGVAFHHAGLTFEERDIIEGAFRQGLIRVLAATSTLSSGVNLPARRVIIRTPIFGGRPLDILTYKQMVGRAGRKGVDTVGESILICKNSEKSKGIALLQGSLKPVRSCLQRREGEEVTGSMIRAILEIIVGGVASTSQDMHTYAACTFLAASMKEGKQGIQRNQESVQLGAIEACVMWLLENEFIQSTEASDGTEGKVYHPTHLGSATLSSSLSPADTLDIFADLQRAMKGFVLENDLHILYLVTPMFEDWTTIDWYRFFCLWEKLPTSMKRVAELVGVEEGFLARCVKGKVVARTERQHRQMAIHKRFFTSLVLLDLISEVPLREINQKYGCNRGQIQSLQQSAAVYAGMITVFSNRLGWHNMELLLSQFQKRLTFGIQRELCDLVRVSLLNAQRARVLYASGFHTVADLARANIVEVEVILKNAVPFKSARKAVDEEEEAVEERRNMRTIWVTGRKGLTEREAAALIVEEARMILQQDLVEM

`COc1ccc(C(F)(F)F)cc1-c1cnccc1C(=O)Nc1nnc(C#Cc2cc(C)[nH]n2)s1` [Compound 27, 3-[2-methoxy-5-(trifluoromethyl)phenyl]-N-[5-[2-(5-methyl-1H-pyrazol-3-yl)ethynyl]-1,3,4-thiadiazol-2-yl]pyridine-4-carboxamide] showed an IC50 of 0.26 nM.

The compound `COc1cnc(Cl)cc1-c1cnccc1C(=O)Nc1nnc(C#Cc2cc(C)[nH]n2)s1` [Compound 28, 3-(2-chloro-5-methoxy-4-pyridyl)-N-[5-[2-(5-methyl-1H-pyrazol-3-yl)ethynyl]-1,3,4-thiadiazol-2-yl]pyridine-4-carboxamide] showed a half-inhibitory concentration (IC50) of 0.36 nM.

`Cc1cc(C#Cc2nnc(NC(=O)c3ccncc3-c3cc(F)ccc3Cl)s2)n[nH]1` [Compound 29] came in with a half-maximal inhibitory concentration (IC50) of 0.6 nM.

The compound `COc1ccc(C(F)(F)F)cc1-c1cnccc1C(=O)Nc1nnc(C2CC2c2ccc(C#N)cc2)s1` (centres unmarked) [Compound 30] showed an IC50 of 0.76 nM.

For the compound `COc1cnc(C(F)F)cc1-c1cnccc1C(=O)Nc1nnc(C#CC2CC2)s1` [Compound 31, N-(5-(cyclopropylethynyl)-1,3,4-thiadiazol-2-yl)-2′-(difluoromethyl)-5′-methoxy-[3,4′-bipyridine]-4-carboxamide], the IC50 turned out to be 0.63 nM.

`COc1cnc(Cl)cc1-c1cn(C)c(=O)cc1C(=O)Nc1nnc(C#CC2CC2)s1` [Compound 32, 2′-chloro-N-(5-(cyclopropylethynyl)-1,3,4-thiadiazol-2-yl)-5′-methoxy-1-methyl-6-oxo-1,6-dihydro-[3,4′-bipyridine]-4-carboxamide] gave an IC50 of 0.66 nM.

With `COc1ccc(C(F)(F)F)cc1-c1cc(CC(=O)N(C)C)ncc1C(=O)Nc1nnc(C#CC2CC2)s1` [Compound 33, N-(5-(cyclopropylethynyl)-1,3,4-thiadiazol-2-yl)-6-(2-(dimethylamino)-2-oxoethyl)-4-(2-methoxy-5-(trifluoromethyl)phenyl)nicotinamide], the IC50 is < 0.25 nM.

`CN(C)C(=O)Cn1cc(-c2cc(C(F)(F)F)ccc2Cl)c(C(=O)Nc2nnc(C#CC3CC3)s2)cc1=O` [Compound 34, 5-(2-chloro-5-(trifluoromethyl)phenyl)-N-(5-(cyclopropylethynyl)-1,3,4-thiadiazol-2-yl)-1-(2-(dimethylamino)-2-oxoethyl)-2-oxo-1,2-dihydropyridine-4-carboxamide] displayed an IC50 of 0.29 nM.

As for `COc1cnc(Cl)cc1-c1cc(CC(=O)N(C)C)ccc1C(=O)Nc1nnc(C#CC2CC2)s1` [Compound 35, 2-(2-chloro-5-methoxypyridin-4-yl)-N-(5-(cyclopropylethynyl)-1,3,4-thiadiazol-2-yl)-4-(2-(dimethylamino)-2-oxoethyl)benzamide], the IC50 is < 0.25 nM.

For the compound `COc1cnc(C(F)F)cc1-c1cn2ncnc2cc1C(=O)Nc1nnc(C#CC2CC2)s1` [Compound 36, N-(5-(cyclopropylethynyl)-1,3,4-thiadiazol-2-yl)-6-(2-(difluoromethyl)-5-methoxypyridin-4-yl)-[1,2,4]triazolo[1,5-a]pyridine-7-carboxamide], 6.6 nM corresponded to half-maximal inhibition (IC50).

Regarding `COc1cnc(C(F)F)cc1-c1cn(C)c(=O)cc1C(=O)Nc1nnc(C#CC2CC2)s1` [Compound 37, N-(5-(cyclopropylethynyl)-1,3,4-thiadiazol-2-yl)-2′-(difluoromethyl)-5′-methoxy-1-methyl-6-oxo-1,6-dihydro-[3,4′-bipyridine]-4-carboxamide], 3.3 nM corresponded to half-maximal inhibition (IC50).

In turn, `COc1cnc(Cl)cc1-c1cc(N2CCCC2=O)ccc1C(=O)Nc1nnc(C#CC2CC2)s1` [Compound 39] showed a concentration for half-maximal inhibition (IC50) of 0.27 nM.

With `COc1cnc(Cl)cc1-c1cc(C#N)ccc1C(=O)Nc1nnc(C#CC2CC2)s1` [Compound 40], the half-maximal inhibitory concentration (IC50) was < 0.25 nM.

Regarding `COc1ccc(C(F)(F)F)cc1-c1cc(Cl)ncc1C(=O)Nc1nnc(C#CC2CC2)s1` [Compound 41], the IC50 is < 0.25 nM.

Compound `COc1ccc(C(F)F)cc1-c1cn(C)c(=O)cc1C(=O)Nc1nnc(C#CC2CC23CC3)s1` (centres unmarked) [Compound 42] returned an IC50 of 1.8 nM. In other words, the single-digit nanomolar range.

Take `Cc1ccc(Cl)cc1-c1cnccc1C(=O)Nc1nnc(C#CC2CC2)s1` [Compound 43]: the IC50 was < 0.25 nM.

`O=C(Nc1nnc(C#CC2CC2)s1)c1ccncc1-c1cc(Cl)ncc1Cl` [Compound 44] had an IC50 of 0.31 nM.

In turn, `COc1cnc(Cl)cc1-c1cc(-c2cccnn2)ccc1C(=O)Nc1nnc(C#CC2CC2)s1` [Compound 45] gave an IC50 of 2.2 nM.

As to `COc1cnc(Cl)cc1-c1cc(-c2cc[nH]n2)ccc1C(=O)Nc1nnc(C#CC2CC2)s1` [Compound 46], the IC50 was determined as 0.2 nM. This IC50 is about 11-fold lower than that of the compound before.

The compound `O=C(Nc1nnc(C#CC2CC23CC3)s1)c1cc2ncnn2cc1-c1cc(Cl)ncc1OC(F)F` (centres unmarked) [Compound 47] displayed a 50% inhibitory concentration (IC50) of 0.62 nM.

Compound `COc1cnc(C(F)F)cc1-c1cn2ncnc2cc1C(=O)Nc1nnc(C#CC2CC23CC3)s1` (centres unmarked) [Compound 48] showed an IC50 of 2.5 nM.

With `COc1cnc(C(F)F)cc1-c1cn(C)c(=O)cc1C(=O)Nc1nnc(C#CC2CC23CC3)s1` (centres unmarked) [Compound 49], the IC50 amounted to 0.75 nM.

As to `O=C(Nc1nnc(C#CC2CC2)s1)c1cc2ncnn2cc1-c1cc(Cl)ncc1OC(F)F` [Compound 50], half-maximal inhibition (IC50) was put at 2.4 nM. This IC50 is about 3.2-fold higher than that of the compound before.

In turn, `COc1ccc(C(F)(F)F)nc1-c1cn(CC(=O)N(C)C)c(=O)cc1C(=O)Nc1nnc(C#CC2CC2)s1` [Compound 51] came in with an IC50 of 2.1 nM.

Take `CNC(=O)Cn1cc(-c2nc(C(F)(F)F)ccc2OC)c(C(=O)Nc2nnc(C#CC3CC3)s2)cc1=O` [Compound 52]: the IC50 is 2.4 nM.

In turn, `COc1cnc(Cl)cc1-c1cc(C#CC2(O)CCOCC2)ccc1C(=O)Nc1nnc(C#CC2CC2)s1` [Compound 53] had a half-maximal inhibitory concentration (IC50) of 0.31 nM.

As to `COc1cnc(Cl)cc1-c1cc(C#CC2(O)COC2)ccc1C(=O)Nc1nnc(C#CC2CC2)s1` [Compound 54], the IC50 is < 0.25 nM.

Consider `COc1ccc(C(F)F)cc1-c1cnccc1C(=O)Nc1nnc(C#CC2CC23CC3)s1` (centres unmarked) [Compound 55], for which the IC50 is < 0.25 nM.

Regarding `COc1ccc(C(F)F)cc1-c1cnccc1C(=O)Nc1nnc(C#CC2CC2)s1` [Compound 56], the IC50 was < 0.25 nM.

Compound `COc1cnc(C(F)(F)F)cc1-c1cn(C)c(=O)cc1C(=O)Nc1nnc(C#CC2CC23CC3)s1` (centres unmarked) [Compound 58] displayed an IC50 of 0.91 nM. This counts as sub-nanomolar.

`COc1cnc(C(F)(F)F)cc1-c1cn(C)c(=O)cc1C(=O)Nc1nnc(C#CC2CC2)s1` [Compound 59] came in with an IC50 of 1.89 nM.

On to `COc1ccc(C(F)(F)F)cc1-c1cn(C)c(=O)cc1C(=O)Nc1nnc(C#CC2CC23CC3)s1` (centres unmarked) [Compound 60], for which inhibition was half-maximal at 1.1 nM (IC50).

On to `Cc1nnc(Cn2cc(-c3cc(C(F)(F)F)ccc3Cl)c(C(=O)Nc3nnc(C#CC4CC4)s3)cc2=O)o1` [Compound 61], for which the IC50 is < 0.25 nM.

Turning to `COc1cnc(Cl)cc1-c1cnccc1C(=O)Nc1nnc(C2CC2c2ccc(OC(F)F)cc2)s1` (centres unmarked) [Compound 62], half-maximal inhibition (IC50) was put at 0.36 nM. This lies in the sub-nanomolar range.

`COc1cnc(Cl)cc1-c1cn2ncnc2cc1C(=O)Nc1nnc(C#CC2CC23CC3)s1` (centres unmarked) [Compound 64] showed an IC50 of 1.9 nM.

`O=C(Nc1nnc(C#CC2CC2)s1)c1cc(=O)n(Cc2nccs2)cc1-c1cc(C(F)(F)F)ccc1Cl` [Compound 65]: the IC50 turned out to be 2.2 nM.

`CN(C)C(=O)Cn1cc(-c2cc(F)ccc2Cl)c(C(=O)Nc2nnc(C#CC3CC3)s2)cc1=O` [Compound 66] had an IC50 of 0.6 nM.

`COc1cnc(Cl)nc1-c1cnccc1C(=O)Nc1nnc(C#CC2CC2)s1` [Compound 68] registered an IC50 of 1.6 nM.
